Experimental data taken from patent US4563472A, “Iodoallyl and iodopropargyl substituted tetrazoles and anti-microbial compositions thereof” (Meiji Seika Kaisha, Ltd., priority 1982, dated 1986).
In brackets after ≈: the same amount, converted by molar mass. Read-outs that look alike come from different tables or passages of the source.

Key:
Assay type in all cases: cell-based
[1] = system: Xanthomonas campestris pv. citri; assay: Antibacterial and Antifungal Activities (in Agricultural Field), MIC; conditions: read-out: Minimal Inhibitory Conc. (MIC)
[2] = system: Trichophyton metagrophytes 530324; assay: Antifungal Activity (in Medicinal Field), MIC; conditions: Trichophyton metagrophytes 530324; read-out: Minimal Inhibitory Conc. (MIC)
Botrytis cinerea = assay: Antibacterial and Antifungal Activities (in Agricultural Field), MIC; conditions: read-out: Minimal Inhibitory Conc. (MIC)
Cochliobolus miyabeanus = assay: as above; conditions: Bipolaris oryzae, read-out: Minimal Inhibitory Conc. (MIC)
[3] = system: Serratia marcescens MB-3848; assay: Antibacterial Activity (in medicinal field), MIC; conditions: MB3848, read-out: Minimal Inhibitory Conc. (MIC)
[4] = system: Trichoderma T-1 ATCC 9645; assay: Antifungal Activity (in Industrial Field), MIC; conditions: ATCC9645, read-out: Minimal Inhibitory Conc. (MIC)
[5] = system: Trichophyton interdigitale; assay: Antifungal Activity (in Medicinal Field), MIC; conditions: read-out: Minimal Inhibitory Conc. (MIC)
[6] = system: Cryptococcus neoformans Cr-1; assay: Antifungal Activity (in Medicinal Field), MIC; conditions: CR1, read-out: Minimal Inhibitory Conc. (MIC)
Phricularia oryzae = assay: Antibacterial and Antifungal Activities (in Agricultural Field), MIC; conditions: read-out: Minimal Inhibitory Conc. (MIC)
[7] = system: Pseudomonas cepacia M-0527; assay: Antibacterial Activity (in medicinal field), MIC; conditions: Burkholderia cepacia, M0527, read-out: Minimal Inhibitory Conc. (MIC)
[8] = system: Pseudomonas syringae pv. tabaci; assay: Antibacterial and Antifungal Activities (in Agricultural Field), MIC; conditions: read-out: Minimal Inhibitory Conc. (MIC)
[9] = system: Aspergillus fumigatus Saito; assay: Antifungal Activity (in Medicinal Field), MIC; conditions: read-out: Minimal Inhibitory Conc. (MIC)
Gibberella fujikuroi = assay: Antibacterial and Antifungal Activities (in Agricultural Field), MIC; conditions: Fusarium fujikuroi, read-out: Minimal Inhibitory Conc. (MIC)
[10] = system: Shigella sonnei EW 33 Type I; assay: Antibacterial Activity (in medicinal field), MIC; conditions: EW33TYPEI, read-out: Minimal Inhibitory Conc. (MIC)
[11] = system: Corynebacterium michiganense; assay: Antibacterial and Antifungal Activities (in Agricultural Field), MIC; conditions: Clavibacter michiganensis; Corynebacterium michiganense; read-out: Minimal Inhibitory Conc. (MIC)
[12] = system: Colletotrichum lagenarium; assay: as above; conditions: Colletotrichum orbiculare, read-out: Minimal Inhibitory Conc. (MIC)
Glomerella cingulata = assay: as above; conditions: Colletotrichum gloeosporioides, read-out: Minimal Inhibitory Conc. (MIC)
Mucor spinescens IAM Mu3 = assay: Antifungal Activity (in Industrial Field), MIC; conditions: IAMMU3, read-out: Minimal Inhibitory Conc. (MIC)
[13] = system: Chaetomium globosum ATCC 6205; assay: Antifungal Activity (in Industrial Field), MIC; conditions: ATCC6205, read-out: Minimal Inhibitory Conc. (MIC)
[14] = system: Cladosporium herbarum IAM F-517; assay: Antifungal Activity (in Industrial Field), MIC; conditions: IAMF517, read-out: Minimal Inhibitory Conc. (MIC)
[15] = system: Staphylococcus epidermidis ATCC 14990; assay: Antibacterial Activity (in medicinal field), MIC; conditions: ATCC14990; Staphylococcus epidermidis ATCC 14990; read-out: Minimal Inhibitory Conc. (MIC)
Erwinia carotovora = assay: Antibacterial and Antifungal Activities (in Agricultural Field), MIC; conditions: Pectobacterium carotovorum, read-out: Minimal Inhibitory Conc. (MIC)
Pellicularia filamentosa = assay: as above; conditions: read-out: Minimal Inhibitory Conc. (MIC)
[16] = system: Staphylococcus aureus 209P JC-1; assay: Antibacterial Activity (in medicinal field), MIC; conditions: read-out: Minimal Inhibitory Conc. (MIC)
[17] = system: Escherichia coli NIHJ JC-2; assay: Antibacterial Activity (in medicinal field), MIC; conditions: NIHJJC2, read-out: Minimal Inhibitory Conc. (MIC)
[18] = system: Klebsiella pneumoniae PCI-602; assay: Antibacterial Activity (in medicinal field), MIC; conditions: PCI602, read-out: Minimal Inhibitory Conc. (MIC)
Diaporithe citri = assay: Antibacterial and Antifungal Activities (in Agricultural Field), MIC; conditions: read-out: Minimal Inhibitory Conc. (MIC)
[19] = system: Aspergillus terreus PQMD 82 j; assay: Antifungal Activity (in Industrial Field), MIC; conditions: PQMD82J, read-out: Minimal Inhibitory Conc. (MIC)
Proteus vulgaris OX-19 = assay: Antibacterial Activity (in medicinal field), MIC; conditions: OX19, read-out: Minimal Inhibitory Conc. (MIC)
[20] = system: Aspergillus flavus ATCC 6275; assay: Antifungal Activity (in Industrial Field), MIC; conditions: ATCC6275, read-out: Minimal Inhibitory Conc. (MIC)
[21] = system: Pullularia pullulans IAM F-24; assay: Antifungal Activity (in Industrial Field), MIC; conditions: IAMF24; Pullularia pullulans IAM F-24; read-out: Minimal Inhibitory Conc. (MIC)
Alternaria kikuchiana = assay: Antibacterial and Antifungal Activities (in Agricultural Field), MIC; conditions: read-out: Minimal Inhibitory Conc. (MIC)
[22] = system: Penicillium luteum ATCC 9644; assay: Antifungal Activity (in Industrial Field), MIC; conditions: Ascospirella lutea, ATCC9644, read-out: Minimal Inhibitory Conc. (MIC)
[23] = system: Aspergillus fumigatus IAM 2621; assay: Antifungal Activity (in Industrial Field), MIC; conditions: IAM2621, read-out: Minimal Inhibitory Conc. (MIC)
[24] = system: Fusarium oxysporum f. lycopersici; assay: Antibacterial and Antifungal Activities (in Agricultural Field), MIC; conditions: read-out: Minimal Inhibitory Conc. (MIC)
Candida alubicans GA-24 = assay: Antifungal Activity (in Medicinal Field), MIC; conditions: GA24; Candida alubicans GA-24; read-out: Minimal Inhibitory Conc. (MIC)
[25] = system: Pseudomonas maltophilia M-0627; assay: Antibacterial Activity (in medicinal field), MIC; conditions: Stenotrophomonas maltophilia, M0627, read-out: Minimal Inhibitory Conc. (MIC)
[26] = system: Bacillus anthracis No. 119; assay: microbe, parasite or virus in culture; conditions: NO.119, read-out: Minimal Inhibitory Conc. (MIC)
Salmonella typhi O-901-W = assay: Antibacterial Activity (in medicinal field), MIC; conditions: Salmonella enterica, read-out: Minimal Inhibitory Conc. (MIC)
[27] = system: Rhizopus nigricans S.N. 32; assay: Antifungal Activity (in Industrial Field), MIC; conditions: Rhizopus stolonifer, read-out: Minimal Inhibitory Conc. (MIC)
[28] = system: Xanthomonas campestris pv. oryzae; assay: microbe, parasite or virus in culture; conditions: read-out: Minimal Inhibitory Conc. (MIC)
[29] = Staphylococcus aureus 209P JC-1

Work on IC(I)=C(I)Cn1ccnc1 [1-(2',3',3'-triiodoallyl)imidazole] yielded an MIC [1] of 25 mg/L (≈ 51.5 µM), an MIC [2] of 1.56 mg/L (≈ 3.21 µM) and an MIC (Botrytis cinerea) of 1.56 mg/L (≈ 3.21 µM). The MIC (Cochliobolus miyabeanus) was 6.25 mg/L (≈ 12.9 µM), the MIC [3] was 12.5 mg/L (≈ 25.7 µM) and the MIC [4] was 6.25 mg/L (≈ 12.9 µM). For the same molecule, the MIC [5] was 3.12 mg/L (≈ 6.42 µM), the MIC [6] was 6.25 mg/L (≈ 12.9 µM) and the MIC (Phricularia oryzae) was 3.13 mg/L (≈ 6.44 µM). It also gave an MIC [7] of 6.25 mg/L (≈ 12.9 µM), an MIC [8] of 12.5 mg/L (≈ 25.7 µM) and an MIC [9] of 6.25 mg/L (≈ 12.9 µM). For the same molecule, the MIC (Gibberella fujikuroi) was 0.78 mg/L (≈ 1.61 µM), the MIC ([10]; Shigella sonnei) was 6.5 mg/L (≈ 13.4 µM) and the MIC [11] was 1.56 mg/L (≈ 3.21 µM). The MIC [12] was 1.56 mg/L (≈ 3.21 µM), the MIC (Glomerella cingulata) was 1.56 mg/L (≈ 3.21 µM) and the MIC (Mucor spinescens IAM Mu3) was 6.25 mg/L (≈ 12.9 µM). For the same molecule, the MIC [13] was 1.56 mg/L (≈ 3.21 µM), the MIC [14] was 0.39 mg/L (≈ 0.803 µM) and the MIC [15] was 12.5 mg/L (≈ 25.7 µM). It also gave an MIC (Erwinia carotovora) of 12.5 mg/L (≈ 25.7 µM), an MIC (Pellicularia filamentosa) of 50 mg/L (≈ 103 µM) and an MIC [16, 29] of 12.5 mg/L (≈ 25.7 µM). For the same molecule, the MIC [17] was 12.5 mg/L (≈ 25.7 µM), the MIC [18] was 12.5 mg/L (≈ 25.7 µM) and the MIC (Diaporithe citri) was 0.78 mg/L (≈ 1.61 µM). It also gave an MIC [19] of 0.78 mg/L (≈ 1.61 µM), an MIC (Proteus vulgaris OX-19) of 12.5 mg/L (≈ 25.7 µM) and an MIC [20] of 3.13 mg/L (≈ 6.44 µM). For the same molecule, the MIC [21] was 3.13 mg/L (≈ 6.44 µM), the MIC (Alternaria kikuchiana) was 1.56 mg/L (≈ 3.21 µM) and the MIC [22] was 0.78 mg/L (≈ 1.61 µM). For the same molecule, the MIC [23] was 6.25 mg/L (≈ 12.9 µM), the MIC [24] was 1.56 mg/L (≈ 3.21 µM) and the MIC (Candida alubicans GA-24) was 1.56 mg/L (≈ 3.21 µM).

Work on IC(I)=C(I)Cn1cnnn1 [1-(2',3',3'-triiodoallyl)tetrazole] yielded an MIC [2] of 0.39 mg/L (≈ 0.799 µM), an MIC [25] of 0.78 mg/L (≈ 1.6 µM) and an MIC [3] of 3.13 mg/L (≈ 6.42 µM). For the same molecule, the MIC [26] was 0.78 mg/L (≈ 1.6 µM), the MIC [5] was 0.39 mg/L (≈ 0.799 µM) and the MIC [6] was 3.12 mg/L (≈ 6.4 µM). The MIC [7] was 0.78 mg/L (≈ 1.6 µM), the MIC (Salmonella typhi O-901-W) was 1.56 mg/L (≈ 3.2 µM) and the MIC [9] was 0.78 mg/L (≈ 1.6 µM). It also gave an MIC ([10]; Shigella sonnei EW 33 Type I) of 3.13 mg/L (≈ 6.42 µM), an MIC [16, 29] of 31.3 mg/L (≈ 64.2 µM) and an MIC [17] of 3.13 mg/L (≈ 6.42 µM). For the same molecule, the MIC [18] was 3.13 mg/L (≈ 6.42 µM), the MIC (Proteus vulgaris OX-19) was 6.25 mg/L (≈ 12.8 µM) and the MIC (Candida alubicans GA-24) was 3.12 mg/L (≈ 6.4 µM).

Work on IC(I)=C(I)Cn1ncnn1 [2-(2',3',3'-triiodoallyl)tetrazole] yielded an MIC [1] of 25 mg/L (≈ 51.2 µM), an MIC [2] of 0.09 mg/L (≈ 0.184 µM) and an MIC [25] of 1.56 mg/L (≈ 3.2 µM). For the same molecule, the MIC (Botrytis cinerea) was 0.39 mg/L (≈ 0.799 µM), the MIC (Cochliobolus miyabeanus) was 1.56 mg/L (≈ 3.2 µM) and the MIC [3] was 6.25 mg/L (≈ 12.8 µM). The MIC [27] was 3.13 mg/L (≈ 6.42 µM), the MIC [26] was 1.56 mg/L (≈ 3.2 µM) and the MIC [4] was 3.13 mg/L (≈ 6.42 µM). It also gave an MIC [5] of 0.09 mg/L (≈ 0.184 µM), an MIC [6] of 0.78 mg/L (≈ 1.6 µM) and an MIC (Phricularia oryzae) of 3.13 mg/L (≈ 6.42 µM). For the same molecule, the MIC [7] was 1.56 mg/L (≈ 3.2 µM), the MIC [8] was > 100 mg/L and the MIC (Salmonella typhi O-901-W) was 6.25 mg/L (≈ 12.8 µM). The MIC [9] was 0.19 mg/L (≈ 0.389 µM), the MIC [28] was 6.25 mg/L (≈ 12.8 µM) and the MIC (Gibberella fujikuroi) was 0.39 mg/L (≈ 0.799 µM). For the same molecule, the MIC ([10]; Shigella sonnei EW 33 Type I) was 6.25 mg/L (≈ 12.8 µM), the MIC [11] was 12.5 mg/L (≈ 25.6 µM) and the MIC [12] was 0.78 mg/L (≈ 1.6 µM). It also gave an MIC (Glomerella cingulata) of 0.39 mg/L (≈ 0.799 µM), an MIC (Mucor spinescens IAM Mu3) of 1.56 mg/L (≈ 3.2 µM) and an MIC [13] of 12.5 mg/L (≈ 25.6 µM). The MIC [14] was 6.25 mg/L (≈ 12.8 µM), the MIC (Erwinia carotovora) was > 100 mg/L and the MIC (Pellicularia filamentosa) was 50 mg/L (≈ 102 µM). The MIC ([16]; Staphylococcus aureus, 209P) was 6.25 mg/L (≈ 12.8 µM), the MIC [17] was 12.5 mg/L (≈ 25.6 µM) and the MIC [18] was 12.5 mg/L (≈ 25.6 µM). For the same molecule, the MIC (Diaporithe citri) was 0.78 mg/L (≈ 1.6 µM), the MIC [19] was 0.78 mg/L (≈ 1.6 µM) and the MIC (Proteus vulgaris OX-19) was 12.5 mg/L (≈ 25.6 µM). It also gave an MIC [20] of 0.78 mg/L (≈ 1.6 µM), an MIC [21] of 0.76 mg/L (≈ 1.56 µM) and an MIC (Alternaria kikuchiana) of 3.13 mg/L (≈ 6.42 µM). For the same molecule, the MIC [22] was 6.25 mg/L (≈ 12.8 µM), the MIC [23] was 6.25 mg/L (≈ 12.8 µM) and the MIC [24] was 1.56 mg/L (≈ 3.2 µM). For the same molecule, the MIC (Candida alubicans GA-24) was 0.19 mg/L (≈ 0.389 µM).
